PubChem BioAssay AID248 (DTP/NCI, 2004)
Several values for one entry are separate records, joined by “and”; a condition that tells them apart may be missing. Equal values may be shown once. Toxic doses and inconclusive results are not listed. Rule as the data show it: active = T/C of 150% or more; inactive = T/C below 125%.

System: L1210 leukemia ip in BDF1 mice, survival T/C
Assay: NCI In Vivo Anticancer Drug Screen. Data for tumor model L1210 Leukemia (intraperitoneal) in B6D2F1 (BDF1) mice
Settings: endpoint: mean survival time, higher = longer survival
Outline: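 Tumor cells were implanted, animals were treated, and survival was followed. The result divides the treated measurement by the vehicle-control measurement.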

[1] = dose: 100.0 mg/kg/injection, schedule: Q04DX002 (ip), vehicle: Klucel (hydroxypropylcellulose) (HPC)
[2] = dose: 200.0 mg/kg/injection, schedule: Q04DX002 (ip), vehicle: Klucel (hydroxypropylcellulose) (HPC)
[3] = dose: 400.0 mg/kg/injection, schedule: Q04DX002 (ip), vehicle: Klucel (hydroxypropylcellulose) (HPC)
[4] = dose: 25.0 mg/kg/injection, schedule: Q01DX009 (ip), vehicle: saline with Tween-80
[5] = dose: 50.0 mg/kg/injection, schedule: Q01DX009 (ip), vehicle: saline with Tween-80
[6] = dose: 100.0 mg/kg/injection, schedule: Q01DX009 (ip), vehicle: saline with Tween-80
[7] = dose: 100.0 mg/kg/injection, schedule: Q04DX003 (ip), vehicle: saline with Tween-80
[8] = dose: 25.0 mg/kg/injection, schedule: Q01DX009 (ip), vehicle: saline
[9] = dose: 100.0 mg/kg/injection, schedule: Q01DX009 (ip), vehicle: Klucel (hydroxypropylcellulose) (HPC)
[10] = dose: 200.0 mg/kg/injection, schedule: Q01DX009 (ip), vehicle: Klucel (hydroxypropylcellulose) (HPC)
[11] = dose: 400.0 mg/kg/injection, schedule: Q01DX009 (ip), vehicle: Klucel (hydroxypropylcellulose) (HPC)
[12] = dose: 200.0 mg/kg/injection, schedule: Q01DX009 (ip), vehicle: saline with Tween-80
[13] = dose: 400.0 mg/kg/injection, schedule: Q01DX009 (ip), vehicle: saline with Tween-80
[14] = dose: 100.0 mg/kg/injection, schedule: Q04DX003 (ip), vehicle: Klucel (hydroxypropylcellulose) (HPC)
[15] = dose: 200.0 mg/kg/injection, schedule: Q04DX003 (ip), vehicle: Klucel (hydroxypropylcellulose) (HPC)
[16] = dose: 400.0 mg/kg/injection, schedule: Q04DX003 (ip), vehicle: Klucel (hydroxypropylcellulose) (HPC)
[17] = dose: 200.0 mg/kg/injection, schedule: Q04DX003 (ip), vehicle: saline with Tween-80
[18] = dose: 400.0 mg/kg/injection, schedule: Q04DX003 (ip), vehicle: saline with Tween-80

Measured: T/C

COc1ccc(NC(=O)c2ccco2)cc1
inactive: [1] 123 % of control | [2] 112 % of control | [3] 123 % of control

CCOCN1CCCC1
inactive: [4] 101 % of control | [5] 96 % of control | dose: 50.0 mg/kg/injection, schedule: Q04DX003 (ip), vehicle: saline with Tween-80 91 % of control | dose: 100.0 mg/kg/injection, schedule: Q01DX001 (ip), vehicle: saline with Tween-80 104 % of control | [6] 95 % of control | [7] 103 % of control | dose: 200.0 mg/kg/injection, schedule: Q01DX001 (ip), vehicle: saline with Tween-80 110 % of control

NC(=O)C(Br)CBr (stereo not drawn)
inactive: [8] 98 % of control | dose: 50.0 mg/kg/injection, schedule: Q01DX009 (ip), vehicle: saline 95 % of control | dose: 100.0 mg/kg/injection, schedule: Q04DX003 (ip), vehicle: saline 101 % of control

CC(=O)Nc1ccc(/C=N\NC(=S)Nc2ccccc2)cc1
inactive: [9] 107 % of control | [10] 93 % of control | [11] 94 % of control

COc1ccc(Cl)cc1NC(=O)Oc1cc(C)c(Cl)c(C)c1
inactive: [9] 104 % of control | [10] 95 % of control | [11] 112 % of control

CCOC(=O)c1ccccc1NC(=O)c1ccccc1
inactive: [1] 100 % of control | [2] 103 % of control | [3] 103 % of control

CNc1nc2ncn(C)c2c(=O)[nH]1
inactive: dose: 100.0 mg/kg/injection, schedule: Q01DX009 (ip), vehicle: saline 97 % of control | dose: 200.0 mg/kg/injection, schedule: Q01DX009 (ip), vehicle: saline 98 % of control | dose: 400.0 mg/kg/injection, schedule: Q01DX009 (ip), vehicle: saline 98 % of control

Cc1ccc(C#CP(C#Cc2ccc(C)cc2)C#Cc2ccc(C)cc2)cc1
inactive: [6] 88 % of control

c1ccc([P+](Cc2cccc(C[P+](c3ccccc3)(c3ccccc3)c3ccccc3)c2)(c2ccccc2)c2ccccc2)cc1
inactive: dose: 1.2 mg/kg/injection, schedule: Q01DX001 (ip), vehicle: acetone 107 % of control | dose: 2.5 mg/kg/injection, schedule: Q01DX001 (ip), vehicle: acetone 99 % of control

COc1ccc2c(c1)N(CCCN(C)C)c1ccccc1S2
inactive: dose: 4.68 mg/kg/injection, schedule: Q01DX009 (ip), vehicle: saline 118 % of control | dose: 9.37 mg/kg/injection, schedule: Q01DX009 (ip), vehicle: saline 115 % of control | dose: 18.75 mg/kg/injection, schedule: Q01DX009 (ip), vehicle: saline 115 % of control | dose: 18.75 mg/kg/injection, schedule: Q04DX003 (ip), vehicle: saline 104 % of control | dose: 37.5 mg/kg/injection, schedule: Q01DX009 (ip), vehicle: saline 118 % of control | dose: 37.5 mg/kg/injection, schedule: Q04DX003 (ip), vehicle: saline 114 % of control | dose: 75.0 mg/kg/injection, schedule: Q01DX009 (ip), vehicle: saline 95 % of control | dose: 75.0 mg/kg/injection, schedule: Q04DX003 (ip), vehicle: saline 121 % of control

COc1ccc(C(=O)C/C(=N\N(C(=O)c2ccc(OC)cc2)c2ccccc2)c2ccc(OC)cc2)cc1
inactive: [5] 100 % of control | [6] 93 % of control | [12] 98 % of control

CCn1cc(C(=O)O)c(=O)c2cc(OC)c3ccccc3c21
inactive: dose: 50.0 mg/kg/injection, schedule: Q04DX002 (ip), vehicle: Klucel (hydroxypropylcellulose) (HPC) 92 % of control | [1] 103 % of control

C=COc1c(Cl)cc(Cl)cc1Cl
inactive: [6] 93 % of control and 101 % of control | dose: 100.0 mg/kg/injection, schedule: Q04DX002 (ip), vehicle: saline with Tween-80 105 % of control and 107 % of control | [12] 101 % of control and 102 % of control | dose: 200.0 mg/kg/injection, schedule: Q04DX002 (ip), vehicle: saline with Tween-80 97 % of control and 98 % of control | [13] 100 % of control and 104 % of control | dose: 400.0 mg/kg/injection, schedule: Q04DX002 (ip), vehicle: saline with Tween-80 94 % of control and 101 % of control

CC(Oc1nc2c(c(=O)n(C)c(=O)n2C)n1C)C1CCCC1 (stereo not drawn)
inactive: dose: 50.0 mg/kg/injection, schedule: Q01DX001 (ip), vehicle: other 103 % of control | dose: 100.0 mg/kg/injection, schedule: Q01DX001 (ip), vehicle: other 100 % of control

CC(=O)OC1C(C)OC(OC2C=C3CCC4C(CCC5(C)C(c6ccc(=O)oc6)CCC45O)C3(C)CC2)C(OC(C)=O)C1OC(C)=O (stereo not drawn)
inactive: dose: 6.25 mg/kg/injection, schedule: Q01DX009 (ip), vehicle: saline with Tween-80 102 % of control | dose: 12.5 mg/kg/injection, schedule: Q01DX009 (ip), vehicle: saline with Tween-80 100 % of control | dose: 12.5 mg/kg/injection, schedule: Q04DX003 (ip), vehicle: saline with Tween-80 105 % of control | [4] 103 % of control | dose: 25.0 mg/kg/injection, schedule: Q04DX003 (ip), vehicle: saline with Tween-80 105 % of control

CCCCOC(=S)SCC(=O)O
inactive: dose: 100.0 mg/kg/injection, schedule: Q04DX002 (ip), vehicle: other 103 % of control | dose: 200.0 mg/kg/injection, schedule: Q04DX002 (ip), vehicle: other 106 % of control | dose: 400.0 mg/kg/injection, schedule: Q04DX002 (ip), vehicle: other 94 % of control

CCCC/C=C/CO
inactive: [4] 97 % of control | [5] 97 % of control and 100 % of control | [12] 97 % of control and 100 % of control

N#Cc1cc(C#N)c(Cl)nc1N
inactive: [9] 94 % of control | [14] 97 % of control | [10] 95 % of control | [15] 95 % of control | [16] 106 % of control

O=C1NC(=O)C(c2cc(Cl)co2)N1 (stereo not drawn)
inactive: [14] 105 % of control | [15] 108 % of control | [16] 101 % of control

O=C1CCC(c2ccccc2)(C2CCN(Cc3ccc(F)cc3)CC2)C(=O)N1 (stereo not drawn)
inactive: dose: 6.25 mg/kg/injection, schedule: Q01DX009 (ip), vehicle: saline 97 % of control | dose: 12.5 mg/kg/injection, schedule: Q01DX009 (ip), vehicle: saline 102 % of control | [8] 102 % of control

O=c1[nH]cnc2nn(C3OC(CO)C(O)C3O)cc12 (stereo not drawn)
inactive: dose: 100.0 mg/kg/injection, schedule: Q01DX005 (ip), vehicle: saline 105 % of control | dose: 200.0 mg/kg/injection, schedule: Q01DX005 (ip), vehicle: saline 104 % of control

O=C(/C=C/c1ccccc1)N/N=C/c1ccncc1
inactive: dose: 100.0 mg/kg/injection, schedule: Q04DX002 (ip), vehicle: saline 91 % of control | dose: 200.0 mg/kg/injection, schedule: Q04DX002 (ip), vehicle: saline 108 % of control | dose: 400.0 mg/kg/injection, schedule: Q04DX002 (ip), vehicle: saline 112 % of control

O=C(O)c1ccnc(Cl)c1
inactive: [7] 101 % of control | [17] 102 % of control | [18] 101 % of control

CCO/C=C1\SC(=S)N(c2cccc(OC)c2)C1=O
inactive: dose: 117.0 mg/kg/injection, schedule: Q01DX009 (ip), vehicle: saline with Tween-80 116 % of control | dose: 176.0 mg/kg/injection, schedule: Q01DX009 (ip), vehicle: saline with Tween-80 108 % of control | dose: 264.0 mg/kg/injection, schedule: Q01DX009 (ip), vehicle: saline with Tween-80 121 % of control | [13] 117 % of control

C=CCN1C2C=C(c3ccccc3)CC1CCC2 (stereo not drawn)
inactive: dose: 12.5 mg/kg/injection, schedule: Q04DX003 (ip), vehicle: Klucel (hydroxypropylcellulose) (HPC) 100 % of control | dose: 25.0 mg/kg/injection, schedule: Q04DX003 (ip), vehicle: Klucel (hydroxypropylcellulose) (HPC) 96 % of control

O=[N+]([O-])/C=C/c1c[nH]c2ccccc12
inactive: [7] 92 % of control | [17] 106 % of control | [18] 103 % of control

O=C1C=C(N2CCOCC2)c2cccc3cccc1c23
inactive: dose: 50.0 mg/kg/injection, schedule: Q01DX001 (ip), vehicle: Klucel (hydroxypropylcellulose) (HPC) 106 % of control | dose: 100.0 mg/kg/injection, schedule: Q01DX001 (ip), vehicle: Klucel (hydroxypropylcellulose) (HPC) 104 % of control | [9] 94 % of control | dose: 200.0 mg/kg/injection, schedule: Q01DX001 (ip), vehicle: Klucel (hydroxypropylcellulose) (HPC) 98 % of control | [10] 96 % of control
